Experiments:
Assay type in all cases: in vivo
[1] = test system: Ach; assay: Konzett data, Ach
[2] = test system: 5-HT; assay: Konzett data, 5-HT
[3] = test system: Hist; assay: Konzett data, Hist

SMILES | Ach (ED50) [1] [mg/kg] | 5-HT (ED50) [2] [mg/kg] | Hist (ED50) [3] [mg/kg] | ED50 [1] [mg/kg]
CCCCCC(C)(O)/C=C/C1C(O)CC(=O)C1C/C=C\CCCCO (racemic) [dl-1,11 ,15-trihydroxymethyl-9-oxo-15-methyl-5-cis-13-trans prostadiene] | 4.3 | 8.3 | 0.75 | 
C=CC(O)(C/C=C/[C@H]1[C@H](O)CC(=O)[C@@H]1CCCCCCC(O)CO)CCCC (relative stereo) [3β-(4-Butylhydroxy-4-hydroxy-1,5-hexadienyl)-2α-(7,8-dihydroxyoctyl)-4α-hydroxycyclopentanone] |  |  |  | 20.1
CCCCC(C)(O)C/C=C/[C@H]1[C@H](O)CC(=O)[C@@H]1C/C=C\CCCC(O)CO (relative stereo) [11α,16-Dihydroxy-1-hydroxymethyl-16-methyl-9-oxo-5-cis-13-trans-prostadien-1-ol] |  |  |  | 331
CCCCC(C)(O)C/C=C/[C@H]1[C@H](O)CC(=O)[C@@H]1CCCCCCC(O)CO (relative stereo) [11α,16-Dihydroxy-1-hydroxymethyl-16-methyl-,9-oxo-13-trans-prosten-1-ol] |  |  |  | 75.9
C=CC(O)(C/C=C/[C@H]1[C@H](O)CC(=O)[C@@H]1C/C=C\CCCC(O)CO)CCCC (relative stereo) [11α,16-Dihydroxy-1-hydroxymethyl-16-vinyl-9-oxo-5-cis-13-trans-prostadien-1-ol] |  |  |  | 11.8

Reference: US4289910A, “1-Hydroxymethyl-prosten-1-ol derivatives” (American Cyanamid Company, priority 1980, dated 1981)
